Measurements as given in US20220370451A1, “INHIBITORS OF HUMAN IMMUNODEFICIENCY VIRUS REPLICATION” (VIIV HEALTHCARE UK ( No. 5) LIMITED, priority 2019, published 2022).

Columns and labels:
recombinant NL4-3 virus = test: HIV cell culture assay (luciferase reporter antiviral activity); type: cell-based; conditions: Human immunodeficiency virus 1, NL43, MT2
Experimental: HIV cell culture assay—MT=2 cells, 293T cells and the proviral DNA clone of NL4-3 virus were obtained from the NIH AIDS Research and Reference Reagent Program. MT=2 cells were propagated in RPMI 1640 media supplemented with 10% heat inactivated fetal bovine serum (FBS), […] penicillin G and up to 100 units/mL streptomycin. The 293T cells were propagated in DMEM media supplemented with 10% heat inactivated FBS, […] penicillin G and […] streptomycin. A recombinant NL4-3 proviral clone, in which a section of the nef gene was replaced with the Renilla luciferase gene, was used to make the reference virus used in these studies. The recombinant virus was prepared through transfection of the recombinant NL4-3 proviral clone into 293T cells using Transit-293 Transfection Reagent from Mirus Bio LLC (Madison, Wis.). Supernatent was harvested after 2-3 days and the amount of virus present was titered in MT=2 cells using luciferase enzyme activity as a marker by measuring luciferase enzyme activity. Luciferase was quantitated using the EnduRen Live Cell Substrate from Promega (Madison, Wis.). Antiviral activities of compounds toward the recombinant virus were quantified by measuring luciferase activity in MT=2 cells infected for 4-5 days with the recombinant virus in the presence of serial dilutions of the compound.
The 50% effective concentration (EC50) was calculated by using the exponential form of the median effect equation where (Fa)=1/[1+(ED50/drug conc.)m] (Johnson V A, Byington RT. Infectivity Assay. In Techniques in HIV Research. ed. Aldovini A, Walker B D. 71-76. New York: Stockton Press.1990). The 50% inhibitory concentration (EC50) was calculated by using the exponential form of the median effect equation where percent inhibition=1/[1+(EC50/drug concentration)m], where m is a parameter that reflects the slope of the concentration-response curve.

[1] = Compound cytotoxicity, XTT-based colorimetric assay; type: cell-based; conditions: human; uninfected MT2 cells, day 4, XTT
Experimental: Compound cytotoxicity and the corresponding CC50 values were determined using the same protocol as described in the antiviral assay except that uninfected cells were used. Cytotoxicity was assessed on day 4 in uninfected MT2 cells by using a XTT (2,3-bis[2-Methoxy-4-nitro-5-sulfophenyl]-2H-tetrazolium-5-carboxyanilide inner salt)-based colorimetric assay (Sigma-Aldrich, St Louis, Mo.).

Structure (SMILES): Cc1nccnc1-c1ccc2c(=O)n(-c3ccc(Cl)c4c(NS(C)(=O)=O)nn(C)c34)c([C@H](Cc3cc(F)cc(F)c3)NC(=O)Cn3ccc(C(C)(C)C)n3)nc2c1 (atropisomer, axis not shown; (P)) [Example 5, (S)-2-(3-(tert-butyl)-1H-pyrazol-1-yl)-N-(1-((3P)-3-(4-chloro-1-methyl-3-(methylsulfonamido)-1H-indazol-7-yl)-7-(3-methylpyrazin-2-yl)-4-oxo-3,4-dihydroquinazolin-2-yl)-2-(3,5-difluorophenyl)ethyl)acetamide]
- EC50 (recombinant NL4-3 virus): 0.65 nM
- CC50 at 4 days [1]: > 500 nM

Structure (SMILES): Cn1nc(NS(C)(=O)=O)c2c(Cl)ccc(-n3c([C@H](Cc4cc(F)cc(F)c4)NC(=O)C(C)(C)n4ccc(C5CC5)n4)nc4nc(-c5ccccc5F)ccc4c3=O)c21 (atropisomer, axis not shown; (P)) [Example 19, (S)-N-(1-((3P)-3-(4-chloro-1-methyl-3-(methylsulfonamido)-1H-indazol-7-yl)-7-(2-fluorophenyl)-4-oxo-3,4-dihydropyrido[2,3-d]pyrimidin-2-yl)-2-(3,5-difluorophenyl)ethyl)-2-(3-cyclopropyl-1H-pyrazol-1-yl)-2-methylpropanamide]
- EC50 (recombinant NL4-3 virus): 0.22 nM
- CC50 at 4 days [1]: > 500 nM

Structure (SMILES): Cc1nccnc1-c1ccc2c(=O)n(-c3ccc(Cl)c4c(NS(C)(=O)=O)nn(C)c34)c([C@H](Cc3cc(F)cc(F)c3)NC(=O)Cn3ccc(C4CCC4)n3)nc2c1 (atropisomer, axis not shown; (P)) [Example 11, (S)-N-(1-((3P)-3-(4-chloro-1-methyl-3-(methylsulfonamido)-1H-indazol-7-yl)-7-(3-methylpyrazin-2-yl)-4-oxo-3,4-dihydroquinazolin-2-yl)-2-(3,5-difluorophenyl)ethyl)-2-(3-cyclobutyl-1H-pyrazol-1-yl)acetamide]
- EC50 (recombinant NL4-3 virus): 0.39 nM
- CC50 at 4 days [1]: > 500 nM

Structure (SMILES): O=C(Cn1nc(C2CC2)c2ccccc21)N[C@@H](Cc1cc(F)cc(F)c1)c1nc2nc(-c3ccccc3F)ccc2c(=O)n1-c1ccc(Cl)c2c(NS(=O)(=O)C3CC3)nn(CC(F)F)c12 (atropisomer, axis not shown; (P)) [Example 13, (S)-N-(1-((3P)-3-(4-chloro-3-(cyclopropanesulfonamido)-1-(2,2-difluoroethyl)-1H-indazol-7-yl)-7-(2-fluorophenyl)-4-oxo-3,4-dihydropyrido[2,3-d]pyrimidin-2-yl)-2-(3,5-difluorophenyl)ethyl)-2-(3-cyclopropyl-1H-indazol-1-yl)acetamide]
- EC50 (recombinant NL4-3 virus): 0.47 nM
- CC50 at 4 days [1]: > 500 nM

Structure (SMILES): CC(C)(C(=O)N[C@@H](Cc1cc(F)cc(F)c1)c1nc2nc(-c3ccccc3F)ccc2c(=O)n1-c1ccc(Cl)c2c(NS(C)(=O)=O)nn(CC(F)F)c12)n1ccc(C2CC2)n1 (atropisomer, axis not shown; (P)) [Example 20]
- EC50 (recombinant NL4-3 virus): 0.96 nM
- CC50 at 4 days [1]: > 500 nM

Structure (SMILES): O=C(Cn1nc(C(F)F)cc1C1CC1)N[C@@H](Cc1cc(F)cc(F)c1)c1nc2cc(-c3ccccn3)ccc2c(=O)n1-c1ccc(Cl)c2c(NS(=O)(=O)C3CC3)nn(CC(F)F)c12 (atropisomer, axis not shown; (P)) [Example 33, (S)-N-(1-((3P)-3-(4-chloro-3-(cyclopropanesulfonamido)-1-(2,2-difluoroethyl)-1H-indazol-7-yl)-4-oxo-7-(pyridin-2-yl)-3,4-dihydroquinazolin-2-yl)-2-(3,5-difluorophenyl)ethyl)-2-(5-cyclopropyl-3-(difluoromethyl)-1H-pyrazol-1-yl)acetamide]
- EC50 (recombinant NL4-3 virus): 0.79 nM
- CC50 at 4 days [1]: > 500 nM

Structure (SMILES): Cc1nccnc1-c1ccc2c(=O)n(-c3ccc(C)c4c(NS(C)(=O)=O)nn(CC(F)F)c34)c([C@H](Cc3cc(F)cc(F)c3)NC(=O)Cn3nc(C(F)F)c4c3C(F)(F)[C@@H]3C[C@H]43)nc2c1 (atropisomer, axis not shown; (P)) [Example 32, N-((S)-1-(3-(1-(2,2-difluoroethyl)-4-methyl-3-(methylsulfonamido)-1H-indazol-7-yl)-(3P)-7-(3-methylpyrazin-2-yl)-4-oxo-3,4-dihydroquinazolin-2-yl)-2-(3,5-difluorophenyl)ethyl)-2-((3bS,4aR)-3-(difluoromethyl)-5,5-difluoro-3b,4,4a,5-tetrahydro-1H-cyclopropa[3,4]cyclopenta[1,2-c]pyrazol-1-yl)acetamide]
- EC50 (recombinant NL4-3 virus): 0.063 nM
- CC50 at 4 days [1]: > 500 nM

Structure (SMILES): Cc1nccnc1-c1ccc2c(=O)n(-c3ccc(Cl)c4c(NS(C)(=O)=O)nn(C)c34)c([C@H](Cc3cc(F)cc(F)c3)NC(=O)Cn3nc(C4CC4)c4ccccc43)nc2c1 (atropisomer, axis not shown; (P)) [Example 2, (S)-N-(1-((3P)-3-(4-chloro-1-methyl-3-(methylsulfonamido)-1H-indazol-7-yl)-7-(3-methylpyrazin-2-yl)-4-oxo-3,4-dihydroquinazolin-2-yl)-2-(3,5-difluorophenyl)ethyl)-2-(3-cyclopropyl-1H-indazol-1-yl)acetamide]
- EC50 (recombinant NL4-3 virus): 0.21 nM
- CC50 at 4 days [1]: > 500 nM

Structure (SMILES): Cc1cc(F)ccc1-c1ccc2c(=O)n(-c3ccc(C)c4c(NS(C)(=O)=O)nn(C)c34)c([C@H](Cc3cc(F)cc(F)c3)NC(=O)Cn3nc(C(F)F)c4c3C(F)(F)[C@@H]3C[C@H]43)nc2c1 (atropisomer, axis not shown; (aR)) [Example 31, 2-((3bS,4aR)-3-(difluoromethyl)-5,5-difluoro-3b,4,4a,5-tetrahydro-1H-cyclopropa[3,4]cyclopenta[1,2-c]pyrazol-1-yl)-N-((S)-2-(3,5-difluorophenyl)-1-(3-(1,4-dimethyl-3-(methylsulfonamido)-1H-indazol-7-yl)-(3P)-7-(4-fluoro-2-methylphenyl)-4-oxo-3,4-dihydroquinazolin-2-yl)ethyl)acetamide]
- EC50 (recombinant NL4-3 virus): 2.3 nM
- CC50 at 4 days [1]: > 500 nM

Structure (SMILES): CS(=O)(=O)Nc1nn(CC(F)F)c2c(-n3c([C@H](Cc4cc(F)cc(F)c4)NC(=O)Cn4nc(C5CC5)c5ccccc54)nc4nc(-c5ccccc5F)ccc4c3=O)ccc(Cl)c12 (atropisomer, axis not shown; (P)) [Example 18, (S)-N-(1-((3P)-3-(4-chloro-1-(2,2-difluoroethyl)-3-(methylsulfonamido)-1H-indazol-7-yl)-7-(2-fluorophenyl)-4-oxo-3,4-dihydropyrido[2,3-d]pyrimidin-2-yl)-2-(3,5-difluorophenyl)ethyl)-2-(3-cyclopropyl-1H-indazol-1-yl)acetamide]
- EC50 (recombinant NL4-3 virus): 0.17 nM
- CC50 at 4 days [1]: > 500 nM

Structure (SMILES): Cc1nccnc1-c1ccc2c(=O)n(-c3ccc(Cl)c4c(NS(C)(=O)=O)nn(C)c34)c([C@H](Cc3cc(F)cc(F)c3)NC(=O)Cn3nc(C(F)(F)F)cc3C)nc2c1 (atropisomer, axis not shown; (P)) [Example 12, (S)-N-(1-((3P)-3-(4-chloro-1-methyl-3-(methylsulfonamido)-1H-indazol-7-yl)-7-(3-methylpyrazin-2-yl)-4-oxo-3,4-dihydroquinazolin-2-yl)-2-(3,5-difluorophenyl)ethyl)-2-(5-methyl-3-(trifluoromethyl)-1H-pyrazol-1-yl)acetamide]
- EC50 (recombinant NL4-3 virus): 0.49 nM
- CC50 at 4 days [1]: > 500 nM

Structure (SMILES): Cc1nccnc1-c1ccc2c(=O)n(-c3ccc(Cl)c4c(NS(C)(=O)=O)nn(C)c34)c([C@H](Cc3cc(F)cc(F)c3)NC(=O)Cn3nc(C(F)F)c4ccccc43)nc2c1 (atropisomer, axis not shown; (P)) [Example 7, (S)-N-(1-((3P)-3-(4-chloro-1-methyl-3-(methylsulfonamido)-1H-indazol-7-yl)-7-(3-methylpyrazin-2-yl)-4-oxo-3,4-dihydroquinazolin-2-yl)-2-(3,5-difluorophenyl)ethyl)-2-(3-(difluoromethyl)-1H-indazol-1-yl)acetamide]
- EC50 (recombinant NL4-3 virus): 0.38 nM
- CC50 at 4 days [1]: > 500 nM

Structure (SMILES): CC(C)(C(=O)N[C@@H](Cc1cc(F)cc(F)c1)c1nc2nc(-c3ccccc3F)ccc2c(=O)n1-c1ccc(Cl)c2c(NS(=O)(=O)C3CC3)nn(CC(F)F)c12)n1ccc(C2CC2)n1 (atropisomer, axis not shown; (P)) [Example 21, (S)-N-(1-((3P)-3-(4-chloro-3-(cyclopropanesulfonamido)-1-(2,2-difluoroethyl)-1H-indazol-7-yl)-7-(2-fluorophenyl)-4-oxo-3,4-dihydropyrido[2,3-d]pyrimidin-2-yl)-2-(3,5-difluorophenyl)ethyl)-2-(3-cyclopropyl-1H-pyrazol-1-yl)-2-methylpropanamide]
- EC50 (recombinant NL4-3 virus): 2.3 nM
- CC50 at 4 days [1]: > 500 nM
